Assay results: patent publication US8889667B2 (Agios Pharmaceuticals, Inc, priority 2010, dated 2014)

Target: PKM2 (Homo sapiens, UniProt P14618)
Assay: PKM2 Assay (activation, LDH-coupled, absorbance at 340 nm)
Assay type: biochemical
Method: • PKM2 stock enzyme solution was diluted in Reaction Buffer • 2 μL of compound was added into each well first, and then 180 μL of the Reaction Mix was added. • Reaction mixture with compound (without ADP) was incubated for 30 minutes at 4° C. • Plates were re-equilibrated to room temperature prior to adding 20 μL ADP to initiate the reaction. • Reaction progress was measured as changes in absorbance at 340 nm wavelength at room temperature (25° C.) Reaction Mix: PKM2 (50 ng/well), ADP (0.7 mM), PEP (0.15 mM), NADH (180 μM), LDH (2 units) in Reaction Buffer Reaction Buffer: 100 mM KCl, 50 mM Tris pH 7.5, 5 mM MgCl2, 1 mM DTT, 0.03% BSA.
Representative compounds of the invention were tested for their ability to activate PKM2 using the above assay. For simplicity, the activation activity of these compounds is represented as an AC50 in Tables 4 and 5 and throughout the application. […] “B” refers to an activator of PKM2 with an EC50 between 100 nM and 500 nM. “C” refers to an activator of PKM2 with an EC50 between 500 nM and 1000 nM. “D” refers to an activator of PKM2 with an EC50 between 1 μM and 20 μM. “E” refers a compound whose activation of PKM2 was not measurable. “N/C” refers to AC50 data not available.

Chain of PKM2 (P14618 whole entry): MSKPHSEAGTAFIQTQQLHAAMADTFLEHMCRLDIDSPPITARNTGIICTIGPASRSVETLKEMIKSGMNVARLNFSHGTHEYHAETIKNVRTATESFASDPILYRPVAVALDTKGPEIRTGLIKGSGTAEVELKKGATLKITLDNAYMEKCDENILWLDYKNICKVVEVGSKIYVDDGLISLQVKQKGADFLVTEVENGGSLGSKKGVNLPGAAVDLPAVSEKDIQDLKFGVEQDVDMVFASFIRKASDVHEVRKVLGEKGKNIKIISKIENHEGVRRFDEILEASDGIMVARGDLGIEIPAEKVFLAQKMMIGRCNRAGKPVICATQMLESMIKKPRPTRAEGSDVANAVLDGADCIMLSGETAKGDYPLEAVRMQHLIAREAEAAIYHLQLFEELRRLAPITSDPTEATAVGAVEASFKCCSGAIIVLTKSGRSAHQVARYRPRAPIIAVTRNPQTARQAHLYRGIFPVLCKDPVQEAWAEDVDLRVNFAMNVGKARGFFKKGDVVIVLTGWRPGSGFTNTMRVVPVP

| Compound | AC50 (Table 5) [nM] | AC50 (Table 4) [nM] |
| --- | --- | --- |
| O=C(c1cnc(NS(=O)(=O)c2cccc3cccnc23)cn1)N1CCN(CC2CC2)CC1 [Compound 451, N-(5-(4-(cyclopropylmethyl)piperazine-1-carbonyl)pyrazin-2-yl)quinoline-8-sulfonamide] | > 20000 |  |
| O=C(c1ccc(NS(=O)(=O)c2cccc3cccnc23)cc1Cl)N1CCN(CC2CC2)CC1 [Compound 427, N-(3-chloro-4-(4-(cyclopropylmethyl)piperazine-1-carbonyl)phenyl)quinoline-8-sulfonamide] | < 100 |  |
| COc1ncccc1CN1CCN(C(=O)c2ccc(NS(=O)(=O)c3cccc4cccnc34)c(OC(F)(F)F)c2)CC1 [Compound 368, N-(4-(4-((2-methoxypyridin-3-yl)methyl)piperazine-1-carbonyl)-2-(trifluoromethoxy)phenyl)quinoline-8-sulfonamide] | 100 to 500 |  |
| CC(c1ccc(F)c(F)c1F)N1CCN(C(=O)c2ccc(NS(=O)(=O)c3cccc4cccnc34)cc2)[C@H](C)C1 (stereo partly drawn) [Compound 189, N-(4-((2R)-2-methyl-4-(1-(2,3,4-trifluorophenyl)ethyl)piperazine-1-carbonyl)phenyl)quinoline-8-sulfonamide] |  | < 100 |
| O=C(c1ccc(NS(=O)(=O)c2cccc3cccnc23)c(OC(F)(F)F)c1)N1CCN(Cc2cccc(Cl)c2Cl)CC1 [Compound 306, N-(4-(4-(2,3-dichlorobenzyl)piperazine-1-carbonyl)-2-(trifluoromethoxy)phenyl)quinoline-8-sulfonamide] | 500 to 1000 |  |
| COc1cc(C(=O)N2CCN(C(=O)c3ccc(F)c(F)c3)CC2)ccc1NS(=O)(=O)c1cccc2cccnc12 [Compound 319, N-(4-(4-(3,4-difluorobenzoyl)piperazine-1-carbonyl)-2-methoxyphenyl)quinoline-8-sulfonamide] | 100 to 500 |  |
| O=C(c1ccc(NS(=O)(=O)c2cccc3cccnc23)cc1)N1C2CCC1CN(Cc1ccccc1)C2 [Compound 213] |  | < 100 |
| O=C(c1ccc(NS(=O)(=O)c2cccc3cccnc23)c(OC(F)(F)F)c1)N1CCN(CCCc2ccccc2)CC1 [Compound 389] | 500 to 1000 |  |
| COc1cccnc1CN1CCN(C(=O)c2ccc(NS(=O)(=O)c3cccc4cccnc34)c(OC(F)(F)F)c2)CC1 [Compound 373, N-(4-(4-((3-methoxypyridin-2-yl)methyl)piperazine-1-carbonyl)-2-(trifluoromethoxy)phenyl)quinoline-8-sulfonamide] | 100 to 500 |  |
| CC1CN(Cc2cc(F)cc(F)c2F)CC(C)N1C(=O)c1ccc(NS(=O)(=O)c2cccc3cccnc23)cc1 (centres unmarked) [Compound 200, N-(4-(2,6-dimethyl-4-(2,3,5-trifluorobenzyl)piperazine-1-carbonyl)phenyl)quinoline-8-sulfonamide] |  | < 100 |
| O=C(c1ccc(NS(=O)(=O)c2cccc3cccnc23)cc1)N1CCN(Cc2ccc(F)cc2)C[C@@H]1c1ccccc1 [Compound 165] |  | < 100 |
| CC(C)(c1cccc(F)c1)N1CCN(C(=O)c2ccc(NS(=O)(=O)c3cccc4cccnc34)cc2)CC1 [Compound 405] | < 100 |  |
| O=C(c1ccc(NS(=O)(=O)c2cccc3cccnc23)cc1)N1CCN(C2(c3ccccc3)CCCC2)CC1 [Compound 406, N-(4-(4-(1-phenylcyclopentyl)piperazine-1-carbonyl)phenyl)quinoline-8-sulfonamide] | < 100 |  |
| O=C(c1ccc(NS(=O)(=O)c2cccc3cccnc23)c(OC(F)(F)F)c1)N1CCN(Cc2cccc(Cl)c2)CC1 [Compound 379, N-(4-(4-(3-chlorobenzyl)piperazine-1-carbonyl)-2-(trifluoromethoxy)phenyl)quinoline-8-sulfonamide] | 100 to 500 |  |
| O=C(c1ccc(NS(=O)(=O)c2cccc3cccnc23)cc1)N1CCN(C(=O)c2c[nH]cn2)CC1 [Compound 349, N-(4-(4-(1H-imidazole-4-carbonyl)piperazine-1-carbonyl)phenyl)quinoline-8-sulfonamide] | 100 to 500 |  |
| O=C(c1ccc(NS(=O)(=O)c2cccc3cccnc23)cc1)N1CC2CCC(C1)N2Cc1ccc(F)cc1 [Compound 219, N-(4-(8-(4-fluorobenzyl)-3,8-diazabicyclo[3.2.1]octane-3-carbonyl)phenyl)quinoline-8-sulfonamide] |  | 100 to 500 |
| O=C(c1ccc(NS(=O)(=O)c2cccc3cccnc23)c(OC(F)(F)F)c1)N1CCN(C2(c3ccccc3)CC2)CC1 [Compound 353, N-(4-(4-(1-phenylcyclopropyl)piperazine-1-carbonyl)-2-(trifluoromethoxy)phenyl)quinoline-8-sulfonamide] | 500 to 1000 |  |
| COc1ccccc1N1C[C@@H](C)N(C(=O)c2ccc(NS(=O)(=O)c3cccc4cccnc34)cc2)[C@@H](C)C1 [Compound 222, N-(4-((2R,6S)-4-(2-methoxyphenyl)-2,6-dimethylpiperazine-1-carbonyl)phenyl)quinoline-8-sulfonamide] |  | < 100 |
| O=C(c1ccc(NS(=O)(=O)c2cccc3cccnc23)cc1F)N1CCN(Cc2ccc(Cl)c(F)c2)CC1 [Compound 422, N-(4-(4-(4-chloro-3-fluorobenzyl)piperazine-1-carbonyl)-3-fluorophenyl)quinoline-8-sulfonamide] | 100 to 500 |  |
| O=C(c1ccc(NS(=O)(=O)c2cccc3cccnc23)cc1Cl)N1CCN(Cc2cc(F)c(F)c(F)c2)CC1 [Compound 434, N-(3-chloro-4-(4-(3,4,5-trifluorobenzyl)piperazine-1-carbonyl)phenyl)quinoline-8-sulfonamide] | < 100 |  |
| CC(c1cc(F)c(F)cc1F)N1CCN(C(=O)c2ccc(NS(=O)(=O)c3cccc4cccnc34)cc2)[C@@H](C)C1 (some centres unmarked) [Compound 174] |  | 100 to 500 |
| CC(c1ccc(F)c(F)c1F)N1CCN(C(=O)c2ccc(NS(=O)(=O)c3cccc4cccnc34)cc2)CC1 (centres unmarked) [Compound 403, N-(4-(4-(1-(2,3,4-trifluorophenyl)ethyl)piperazine-1-carbonyl)phenyl)quinoline-8-sulfonamide] | < 100 |  |
| O=C(c1ccc(NS(=O)(=O)c2cccc3cccnc23)c(OC(F)(F)F)c1)N1CCN(C(=O)c2cocn2)CC1 [Compound 327] | 500 to 1000 |  |

Results, then the compound that gave them:

| AC50 (Table 5) [nM] | AC50 (Table 4) [nM] | Compound |
| --- | --- | --- |
|  | 100 to 500 | CC(c1ccc(F)cc1)N1CCN(C(=O)c2ccc(NS(=O)(=O)c3cccc4cccnc34)cc2)[C@@H](C)C1 (some centres unmarked) [Compound 171] |
|  | > 20000 | CCOC(=O)N1[C@H](C)CN(C(=O)c2ccc(NS(=O)(=O)c3cccc4cccnc34)cc2)C[C@@H]1C [Compound 117, (2S,6R)-ethyl 2,6-dimethyl-4-(4-(quinoline-8-sulfonamido)benzoyl)piperazine-1-carboxylate] |
|  | 100 to 500 | CC(c1ccc(F)cc1Cl)N1CCN(C(=O)c2ccc(NS(=O)(=O)c3cccc4cccnc34)cc2)[C@H](C)C1 (stereo partly drawn) [Compound 191, N-(4-((2R)-4-(1-(2-chloro-4-fluorophenyl)ethyl)-2-methylpiperazine-1-carbonyl)phenyl)quinoline-8-sulfonamide] |
|  | < 100 | C[C@H]1CN(CC2CC2)CCN1C(=O)c1ccc(NS(=O)(=O)c2cccc3cccnc23)cc1 [Compound 144, (S)—N-(4-(4-(cyclopropylmethyl)-2-methylpiperazine-1-carbonyl)phenyl)quinoline-8-sulfonamide] |
| 100 to 500 |  | O=C(c1ccc(NS(=O)(=O)c2cccc3cccnc23)cc1)N1CCN(C(=O)c2cc[nH]n2)CC1 [Compound 350, N-(4-(4-(1H-pyrazole-3-carbonyl)piperazine-1-carbonyl)phenyl)quinoline-8-sulfonamide] |
|  | 100 to 500 | C[C@H]1CN(CC2CCC2)CCN1C(=O)c1ccc(NS(=O)(=O)c2cccc3cccnc23)cc1 [Compound 207, (S)—N-(4-(4-(cyclobutylmethyl)-2-methylpiperazine-1-carbonyl)phenyl)quinoline-8-sulfonamide] |
|  | < 100 | C[C@@H]1CN(C(=O)OCC2CC2)CCN1C(=O)c1ccc(NS(=O)(=O)c2cccc3cccnc23)cc1 [Compound 112, (R)-Cyclopropylmethyl 3-methyl-4-(4-(quinoline-8-sulfonamido)benzoyl)piperazine-1-carboxylate] |
|  | < 100 | C[C@@H]1CN(Cc2cc(F)c(F)cc2F)CCN1C(=O)c1ccc(NS(=O)(=O)c2cccc3cccnc23)cc1 [Compound 120, (R)—N-(4-(2-methyl-4-(2,4,5-trifluorobenzyl)piperazine-1-carbonyl)phenyl)quinoline-8-sulfonamide] |
|  | 100 to 500 | C[C@@H]1CN(C(=O)OC2CCOCC2)CCN1C(=O)c1ccc(NS(=O)(=O)c2cccc3cccnc23)cc1 [Compound 124, (R)-Tetrahydro-2H-pyran-4-yl-3-methyl-4-(4-(quinoline-8-sulfonamido)benzoyl)piperazine-1-carboxylate] |
|  | 100 to 500 | C[C@@H]1CN(C(=O)OCCC2CCCCC2)CCN1C(=O)c1ccc(NS(=O)(=O)c2cccc3cccnc23)cc1 [Compound 121, (R)-2-Cyclohexylethyl 3-methyl-4-(4-(quinoline-8-sulfonamido)benzoyl)piperazine-1-carboxylate] |
|  | 100 to 500 | C[C@H]1CN(Cc2ccc(Cl)c(F)c2)CCN1C(=O)c1ccc(NS(=O)(=O)c2cccc3cccnc23)cc1 [Compound 138, (S)—N-(4-(4-(4-chloro-3-fluorobenzyl)-2-methylpiperazine-1-carbonyl)phenyl)quinoline-8-sulfonamide] |
|  | 100 to 500 | C[C@H]1CN(C[C@H]2CCOC2)CCN1C(=O)c1ccc(NS(=O)(=O)c2cccc3cccnc23)cc1 [Compound 210] |
